As a reminder, the melting point is the temperature of the solid-liquid transition. `OCC1(Oc2ccc3c(c2)c(-c2cc4cccnc4[nH]2)cn3C2(CO)CCC2)CCC1` displayed a melting point of 165 to 166 °C.
Molecule `NC(=NCCc1ccccn1)Nc1ccc(Br)cn1` yielded a melting point of 139 to 141 °C.
Turning to `CS(=O)(=O)c1ccc(-c2cnn(-c3cccc(Cl)c3)c(=O)c2Oc2ccc(F)cc2)cc1`, the melting point lay in the range of 211 to 213 °C.
With `CN=C(NC#N)Nc1ccc2c(c1)CCC1(C)CC(=O)NN=C21` (stereo not drawn), the melting point stood at 269 °C.
As to `Cc1nc(N2CCCC(Cc3cccnc3)C2=O)sc1C(=O)NCc1ccccc1` (stereo not drawn), the melting point lay within 140 to 141 °C.
Consider `ON=C1CCC2(CC1)OC(c1ccccc1)c1ccccc12` (stereo not drawn), for which the melting point was in the range of 172 to 175 °C.
For `CC(C)(C)OC(=O)CC(NC(=O)C1CCCN2C(=O)CCC(NC(=O)c3ccccc3)C(=O)N12)C(=O)COC(=O)c1c(Cl)cccc1Cl` (stereo not drawn), the melting point lay in the range of 102 to 107 °C.
The molecule `O=C(Cn1ccnc1)c1cc(Br)cc2ccccc12` had a melting point of 242 to 244 °C.
The same measure for `CCCCCCCCCCCCCCOc1ccc(C(=O)OC)o1`: 56 to 58 °C; for `CCCc1cc(C(=O)NC2=NC(=O)CN2C)ccc1OC(C(=O)NS(=O)(=O)c1ccc(C(C)C)cc1)c1ccc2c(c1)OCO2` (stereo not drawn): 137 to 139 °C.
For `CN1CCN(c2cnc(-c3cc(Cl)cc(Cl)c3Cl)c(N)n2)CC1`, the melting point amounted to 185 °C.
Molecule `COc1cc2c3c(cccc3c1N1CCCCC1)C(=O)N(O)C2=O` displayed a melting point of 204 to 205 °C.
The molecule `Cn1c2c(c3ccccc31)CC(C(=O)O)N(C(=O)c1ccc(Cl)cc1)C2` (stereo not drawn) came in with a melting point of 262 to 263 °C.
Molecule `O=P(O)(O)C(O)(CCC1CCCCN1)P(=O)(O)O` (stereo not drawn) registered a melting point of 193 to 195 °C.
`CCc1c(O)c(=O)ccn1CCOC(=O)C(C)(C)C` showed a melting point of 113 to 115 °C.
`CCCc1oc(-c2ccccc2)nc1COc1ccc(COc2ccccc2CC(=O)O)cc1`: the melting point lay within 129 to 130 °C.
Then `Cc1ccc2c(n1)[nH]c1ccc(C(=O)c3ccccc3)cc12`, with 231 °C; and `CC1(C)Nc2ccccc2-n2cnc(-c3noc(C4CC4)n3)c21`, with 166 to 169 °C; and `CN(Cc1cc(C(=O)OC(C)(C)C)ccc1[N+](=O)[O-])C(=O)OC(C)(C)C`, with 56 to 58 °C.
In the case of `O=C1CCN(C(=O)c2cc(C(F)(F)F)cc(C(F)(F)F)c2)CC1`, the melting point was in the range of 155 to 157 °C.
Molecule `CCc1nn(-c2ccccn2)c2nc3cc(F)c(F)cc3c(Cl)c12` returned a melting point of 160 to 161 °C.
The molecule `Cc1cc2c3c(ccc(N4CCCC4)c3c1)C(=O)N(O)C2=O` came in with a melting point of 236 to 237 °C.
With `Cc1nn(C)c(F)c1C(=O)Nc1cccc2c1C(C)CC2(C)C` (stereo not drawn), the melting point stood at 137 °C.
The same measure for `N#CC1(C(O)(Cn2cncn2)c2ccc(Cl)cc2)CC1` (stereo not drawn): 107 °C.
The same measure for `OCc1ccccc1-c1noc2ccccc12`: 55 °C; for `Cn1ncc2cc(NC(=O)Nc3ccc(C(F)(F)F)cc3)ccc21`: 252 to 254 °C; for `Cc1[nH]c(=S)n(Nc2cccc(F)c2)c1-c1ccccc1`: 226 °C.
`CCOC(=O)C(=CNc1c[nH]nn1)C(=O)c1cc(F)c(F)cc1F`: the melting point was in the range of 157 to 159 °C.
`CCC(=O)Nc1cc(-c2c(-c3cccc(C)c3)nc3cccnn23)ccn1` showed a melting point of 138 to 139 °C.
The molecule `CCn1nc2c(N)nc3ccccc3c2c1CC(C)(C)O` showed a melting point of 223 to 225 °C.
Consider `CC1CC(=O)C=C2C=CC3C4CCC(=O)C4(C)CCC3C21C` (stereo not drawn), for which the melting point was 171 °C.
Then `O=C(c1ccc(F)cc1)N1CCC[C@H](c2nc(-c3ccc4ccccc4c3)no2)C1`, with 142 to 143 °C.
`COc1cc(Cc2cnc(NCCSCc3nccs3)[nH]c2=O)ccn1` yielded a melting point of 106 °C.
In the case of `COCCS(=O)(=O)c1ccc(CCN2CC=C(c3c[nH]c(-c4ccc(F)c(Cl)c4)c3-c3ccncc3)CC2)cc1`, the melting point fell in the range of 208 to 210 °C.
Molecule `O=C1c2cc([N+](=O)[O-])cc3cc([N+](=O)[O-])cc(c23)C(=O)N1O` returned a melting point of 317 to 320 °C.
The same measure for `COc1ccc2c(c1)C(=O)C(Cc1nccs1)CO2` (stereo not drawn): 71 to 73 °C.
`Cn1nc(C(F)(F)F)c(C(=O)Nc2ccccc2)c1-c1ccccc1O` had a melting point of 191 °C.
Molecule `CCCc1ccc(C(=O)Nc2ccc3c(c2)CCCC3=O)cc1` yielded a melting point of 168 to 170 °C.
`CC1(C)Cc2ccccc2C1c1cnccc1C(=O)O` (stereo not drawn) displayed a melting point of 254 to 257 °C.
`N=C(NO)c1ccc(-c2ccc(-c3ccc(C(=N)NO)o3)cc2)cc1` gave a melting point of 229 to 230 °C.
As for `Cc1ccccc1C(=O)N1CCc2nnc(Cl)cc2C1`, the melting point fell in the range of 123 to 126 °C.
`O=c1ccn(-c2cccc(S(=O)(=O)c3nc4ccccc4[nH]3)c2)nc1-c1ccnn1-c1ccccc1` came in with a melting point of 160 to 161 °C.
As for `CNC(=O)c1cc(C(=O)OC)cc(C(=O)NC)n1`, the melting point is 202 to 203 °C.
Regarding `C#Cc1cc2c(cc1Cl)C=C(C(=O)O)C(C(F)(F)F)O2` (stereo not drawn), the melting point was more than 300 °C.
`C#CCN1CCCc2ccc(OC(=O)Nc3ccccc3OC)cc21` returned a melting point of 83 °C.
Then `O=Cc1csc(Cc2ccccc2)n1`, with 78 °C.
`COc1ccc(-c2c(CCN3CCN(c4cc(C)ccn4)CC3)c3cccc4c3n2CCC4)cc1` came in with a melting point of 120 °C.
The same measure for `COc1ccc(CCCc2cnc(N)nc2N)cc1`: 151 to 154 °C; for `CCOC(=O)c1cnc2n(c1=O)C(C)CCC2=NNC(=O)c1ccc2c(c1)OCO2` (stereo not drawn): 183 to 185 °C.
On to `CN(C)CCC(=O)Nc1cccc(NC(=O)Nc2ccc(N(CCCl)CCCl)cc2)c1`, for which the melting point fell in the range of 88 to 90 °C.
`C=CCc1c(O)c(C(C)=O)cc(C(C)=O)c1O`: the melting point lay within 84 to 86 °C.
Then `CC1CC(C)CN(CN2C(=O)CN(CC(C)N3CC(=O)N(CN4CC(C)CC(C)C4)C(=O)C3)CC2=O)C1` (stereo not drawn), with 142 to 144 °C; and `Nc1c2c(nc3ccccc13)CCCC2=O`, with 236 to 238 °C; and `COc1ccc(C#Cc2ccc3c(Nc4cc(OC)c(Cl)cc4Cl)c(C#N)cnc3c2)cc1`, with 225 to 226 °C.
Then `O=S1(=O)N=CN(C2CCCCCC2)c2cc(Cl)ccc21`, with 209 to 211 °C; and `O=C1CCC(c2ccc(O)cc2)=NN1c1ccccn1`, with more than 220 °C; and `CC(=O)Oc1c(C(C)C)cc(NC(=O)Nc2cnc3c(C)cc(C)cc3c2-c2ccccc2Cl)cc1C(C)C`, with 248 to 249 °C.
`N#Cc1ncn(Cc2ccc(Cl)c(Cl)c2)c1C#N` registered a melting point of 95 to 96 °C.
Turning to `O=C(c1cc(Cc2ccccc2)cc(Cn2ccnc2)c1)c1cc(Cl)c2cccnc2c1O`, the melting point fell in the range of 148 to 150 °C.
In turn, `O=C(O)c1c(I)c(I)c(C(=O)O)c(I)c1I` had a melting point of 205 to 206 °C.
Take `CCCNC(=O)C(C)=Cc1ccc2c(c1)c(Cc1ccc(C(=O)NS(=O)(=O)c3ccccc3C)cc1OC)cn2C`: the melting point lay in the range of 189 to 191 °C.
The same measure for `NS(=O)(=O)c1ccc(S(=O)(=O)CC(O)CO)cc1` (stereo not drawn): 140 to 147 °C; for `CC=C1CCC2C3CCC4CC(O)CCC4(C)C3C(N(C)C)CC12C` (stereo not drawn): 59 to 61 °C.

The record behind these values is a melting point compilation (Tetko et al.; mined from patent text by program, amines drawn as free bases though some values may be those of a salt).
